# pEC50: −log10 of the molar value.
# Target: T1, human CB2 (hCB2) receptor (Homo sapiens, UniProt P34972)
# T1 construct: expressed in transfected cells; host or cells: CHO-K1
# Assay: Inhibition of forskolin-activated cAMP production upon activation of human CB2 receptor (HTRF)
# Format: cell-based
# Settings: CHO-K1 cells stably transfected with hCB2; 15 μM forskolin; pEC50=-log(EC50); relative to WIN55212-2
# Description: D. Pharmacological Examples D.1 Inhibition of cAMP in Response to Activation of the Human CB2 Receptors
# Functional activity of the test compounds was assessed by measuring their potency to inhibit forskolin-activated cAMP production upon activation of human CB2 (hCB2) receptor through homogenous time resolved fluorescence (HTRF) assays.
# CHO-K1 cells stably transfected with hCB2 were grown up to 80-90% confluence in T175 Falcon flasks in DMEM/NUT MIX F-12 culture medium complemented with 2% Solution A (5.10^6 IU/l penicillin G, 5 g/l streptomycin sulphate, 5.5 g/l pyruvate, 14.6 g/l L-glutamine, 1M NaOH) and 10% foetal calf serum. Before the experiments, medium was removed, cells were washed with PBS/EDTA (140 mM NaCl, 1 mM Na2-EDTA, 8 mM Na2HPO4.2H2O, 8.5 mM KH2PO4, 2.7 mM KCl, 21 mM glucose), resuspended in stimulation buffer (HBSS 1×, IBMX 1 mM, Hepes 5 mM, MgCl2 10 mM, BSA 0.1%, pH 7.4). Cells were diluted to a concentration of 10^6 cells/ml for hCB2 experiments. Assays were performed using the cAMP Dynamic HTRF kit (CIS bio international, France) according to the recommendations of the manufacturer.
# For CB2, each well of a 384 flat bottom black polystyrene assay plate (Costar) was filled with 10 μl stimulation buffer containing 15 μM forskolin and either test compound (in 3% DMSO), 3% DMSO or 10 μM Win55212-2 (in 3% DMSO). Then, 20 μl of the diluted hCB2-CHO-K1 cells was added (20,000 cells/well). After 30 minutes incubation in dark at room temperature, 10 μl cAMP-XL665 and 10 μl anti-cAMP cryptate (both at a final dilution of 1/100) was added to the cells.
# After equilibration of the reaction mixtures for 1 to 24 hours in dark at room temperature, fluorescence was measured at 665 nm and 620 nm using a Discovery microplate fluorescence counter (Perkin Elmer), and the signal ratio of 665 nm/620 nm was calculated. The signal ratios of the test compounds were expressed relative to the signal ratios of the DMSO control (maximal signal ratio, no inhibition of cAMP) and WIN55212-2 for hCB2, respectively (minimal signal ratio, maximal inhibition of cAMP). From the dose response curves generated for each test compound, the dose at which 50% of the maximal inhibition of cAMP level is observed (EC50, expressed in the Table as pEC50=−log (EC50) values) and the level of inhibition reached with 10 μM of the test compound compared to WIN55212-2 (for hCB2) was calculated.
# T1 sequence (P34972 whole entry): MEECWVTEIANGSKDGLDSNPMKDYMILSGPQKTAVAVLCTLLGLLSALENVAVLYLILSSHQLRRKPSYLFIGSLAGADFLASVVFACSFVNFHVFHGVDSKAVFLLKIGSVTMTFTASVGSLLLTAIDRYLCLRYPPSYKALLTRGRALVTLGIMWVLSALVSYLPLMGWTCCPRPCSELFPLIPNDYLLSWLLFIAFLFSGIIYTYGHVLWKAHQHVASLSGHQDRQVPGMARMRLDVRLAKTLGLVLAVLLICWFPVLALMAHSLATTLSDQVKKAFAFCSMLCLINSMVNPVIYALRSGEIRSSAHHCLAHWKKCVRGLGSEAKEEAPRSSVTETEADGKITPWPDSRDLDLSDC
Compound,pEC50,CB2 pEC50
CC(=O)N1CCC(Cn2c(C(C)(C)C)nc3cc(S(=O)(=O)Cc4ccc(N(C)C(C)=O)cc4)ccc32)CC1 [compound 80],~7.33,–
CCS(=O)(=O)c1ccc2c(c1)nc(C(C)(C)C)n2CC1CCN(C(C)=O)CC1 [compound 1],8.07,–
COc1ccc(CS(=O)(=O)c2ccc3c(c2)nc(C(C)(C)C)n3CC2CCN(C(C)=O)CC2)cc1 [compound 12],6.80,–
CC(=O)N1CCC(Cn2c(C(C)(C)C)nc3cc(S(=O)(=O)CCCC(F)(F)F)ccc32)CC1 [compound 3],7.81,–
CC(=O)N1CCC(Cn2c(C(C)(C)C)nc3cc(SCCC#N)ccc32)CC1 [compound 15],8.00,–
CCC(CC)Sc1ccc2c(c1)nc(C(C)(C)C)n2CC1CCN(C(C)=O)CC1 [compound 51],9.10,–
CC(=O)N1CCC(Cn2c(C(C)(C)C)nc3cc(S(=O)(=O)c4ccc(C(F)(F)F)cc4Cl)ccc32)CC1 [compound 107],~8.13,–
COc1ccccc1S(=O)(=O)c1ccc2c(c1)nc(C(C)(C)C)n2CC1CCN(C(C)=O)CC1 [compound 109],~8.06,–
COc1ccc(CSc2ccc3c(c2)nc(C(C)(C)C)n3CC2CCN(C(C)=O)CC2)cc1 [compound 11],7.69,–
CC(=O)N1CCC(Cn2c(C(C)(C)C)nc3cc(Sc4ccccc4Cl)ccc32)CC1 [compound 70],10.06,–
CC(=O)N1CCC(Cn2c(C(C)(C)C)nc3cc(S(=O)(=O)CCCO)ccc32)CC1 [compound 19],–,6.84
CC(=O)N1CCC(Cn2c(C(C)(C)C)nc3cc(Sc4cccc(OCCCC#N)c4)ccc32)CC1 [compound 95],~8.57,–
CC(=O)N1CCC(Cn2c(C(C)(C)C)nc3cc(S(=O)(=O)c4ccccc4C#N)ccc32)CC1 [compound 94],~8.48,–
CC(=O)N1CCC(Cn2c(C(C)(C)C)nc3cc(S(=O)(=O)c4ccc(N)c(Cl)c4)ccc32)CC1 [compound 110],~8.00,–
CC(=O)N1CCC(Cn2c(C(C)(C)C)nc3cc(S(=O)(=O)c4c(F)cc(F)cc4F)ccc32)CC1 [compound 114],~8.38,–
CC(=O)N1CCC(Cn2c(C(C)(C)C)nc3cc(Sc4ccccc4C#N)ccc32)CC1 [compound 93],~9.62,–
CC(=O)N1CCC(Cn2c(C(C)(C)C)nc3cc(Sc4ccc(C(F)(F)F)cc4)ccc32)CC1 [compound 87],~8.00,–
CC(=O)N1CCC(Cn2c(C(C)(C)C)nc3cc(S(=O)(=O)C(C)C)ccc32)CC1 [compound 64],7.89,–
CC(=O)N1CCC(Cn2c(C(C)(C)C)nc3cc(S(=O)(=O)c4ccc(F)c(C#N)c4)ccc32)CC1 [compound 105],~8.89,–
CC(=O)N1CCC(Cn2c(C(C)(C)C)nc3cc(SCC4CCC4)ccc32)CC1 [compound 41],8.93,–
CCC(CC)S(=O)(=O)c1ccc2c(c1)nc(C(C)(C)C)n2CC1CCN(C(C)=O)CC1 [compound 61],8.60,–
COCCSc1ccc2c(c1)nc(C(C)(C)C)n2CC1CCN(C=O)CC1 [compound 22],8.15,–
CC(C)S(=O)(=O)c1ccc2c(c1)nc(C(C)(C)C)n2CC1CCS(=O)(=O)CC1 [compound 30],7.30,–
CC(=O)N1CCC(Cn2c(C(C)(C)C)nc3cc(S(=O)(=O)c4c(F)cccc4F)ccc32)CC1 [compound 111],~7.78,–
CC(=O)N1CCC(Cn2c(C(C)(C)C)nc3cc(S(=O)(=O)C(C)(C)c4ccccc4)ccc32)CC1 [compound 55],7.03,–
CC(=O)Nc1ccc(CS(=O)(=O)c2ccc3c(c2)nc(C(C)(C)C)n3CC2CCN(C(C)=O)CC2)cc1 [compound 79],8.23,–
CC(=O)N1CCC(Cn2c(C(C)(C)C)nc3cc(S(=O)(=O)c4cccc(C#N)c4C)ccc32)CC1 [compound 112],~7.78,–
CC(=O)N1CCC(Cn2c(C(C)(C)C)nc3cc(Sc4ccc(F)cc4)ccc32)CC1 [compound 58],8.07,–

Compound,pEC50,CB2 pEC50
CC(=O)N1CCC(Cn2c(C(C)(C)C)nc3cc(S(=O)(=O)C(C)C#N)ccc32)CC1 (stereo not shown) [compound 39],8.15,–
COc1cccc(OC)c1Sc1ccc2c(c1)nc(C(C)(C)C)n2CC1CCN(C(C)=O)CC1 [compound 101],~9.29,–
COc1ccc(S(=O)(=O)c2ccc3c(c2)nc(C(C)(C)C)n3CC2CCN(C(C)=O)CC2)c(OC)c1 [compound 106],~7.64,–
CC(=O)N1CCC(Cn2c(C(C)(C)C)nc3cc(S(=O)(=O)c4ccc(C#N)cc4)ccc32)CC1 [compound 23],8.43,–
CC(=O)N1CCC(Cn2c(C(C)(C)C)nc3cc(SC4CCCC4)ccc32)CC1 [compound 32],8.89,–
CC(=O)N1CCC(Cn2c(C(C)(C)C)nc3cc(S(=O)(=O)C4CCCC4)ccc32)CC1 [compound 35],–,8.49
CC(=O)N1CCC(Cn2c(C(C)(C)C)nc3cc(SCc4ccc(F)cc4)ccc32)CC1 [compound 17],9.10,–
CCCC(CCC)Sc1ccc2c(c1)nc(C(C)(C)C)n2CC1CCN(C(C)=O)CC1 [compound 65],8.76,–
CCS(=O)(=O)c1ccc2c(c1)nc(C(C)C)n2CC1CCN(C(C)=O)CC1 [compound 47],6.02,–
CC(=O)N1CCC(Cn2c(C(C)(C)C)nc3cc(S(=O)(=O)c4ccccc4C(F)(F)F)ccc32)CC1 [compound 113],~8.60,–
COCCCOc1cccc(S(=O)(=O)c2ccc3c(c2)nc(C(C)(C)C)n3CC2CCN(C(C)=O)CC2)c1 [compound 86],8.27,–
CC(=O)N1CCC(Cn2c(C(C)(C)C)nc3cc(Sc4cccc(Cl)c4)ccc32)CC1 [compound 89],~9.96,–
CC(=O)N1CCC(Cn2c(C(C)(C)C)nc3cc(S(=O)(=O)c4cccc(OCCCC#N)c4)ccc32)CC1 [compound 96],8.45,–
CC(=O)N1CCC(Cn2c(C(C)(C)C)nc3cc(Sc4ccncc4)ccc32)CC1 [compound 33],8.35,–
CC(=O)N1CCC(Cn2c(C(C)(C)C)nc3cc(S(=O)(=O)c4ccc(OC(F)(F)F)cc4)ccc32)CC1 [compound 104],~7.63,–
CC(C)(C)c1nc2cc(SCCCO)ccc2n1CC1CCN(C=O)CC1 [compound 21],8.27,–
COc1cccc(OC)c1S(=O)(=O)c1ccc2c(c1)nc(C(C)(C)C)n2CC1CCN(C(C)=O)CC1 [compound 102],~8.46,–
COc1cccc(S(=O)(=O)c2ccc3c(c2)nc(C(C)(C)C)n3CC2CCN(C(C)=O)CC2)c1OC [compound 108],~7.86,–
CC(=O)N1CCC(Cn2c(C(C)(C)C)nc3cc(Sc4cccs4)ccc32)CC1 [compound 66],8.65,–
CC(=O)N1CCC(Cn2c(C(C)(C)C)nc3cc(S(=O)(=O)c4cccc(N5CCOCC5)c4)ccc32)CC1 [compound 116],~7.35,–
CC(=O)N1CCC(Cn2c(C(C)(C)C)nc3cc(S(=O)(=O)C(C)(C)C#N)ccc32)CC1 [compound 42],8.26,–
CC(=O)N1CCC(Cn2c(C(C)(C)C)nc3cc(Sc4ccc(C#N)cc4)ccc32)CC1 [compound 18],8.20,–
CC(=O)N1CCC(Cn2c(C(C)(C)C)nc3cc(Sc4ccccn4)ccc32)CC1 [compound 50],8.11,–
CC(=O)N1CCC(Cn2c(C(C)(C)C)nc3cc(SCCc4ccc(F)cc4)ccc32)CC1 [compound 52],8.40,–
CC(=O)N1CCC(Cn2c(C(C)(C)C)nc3cc(S(=O)(=O)c4cccc(OC(C)C)c4)ccc32)CC1 [compound 100],8.63,–
CC(=O)N1CCC(Cn2c(C(C)(C)C)nc3cc(S(=O)(=O)c4ccoc4)ccc32)CC1 [compound 103],~8.42,–
CC(=O)N1CCC(Cn2c(C(C)(C)C)nc3cc(SCc4ccccc4)ccc32)CC1 [compound 72],7.89,–
